Assay results reported in ChEMBL document CHEMBL4673395, “Discovery of PIPE-359, a Brain-Penetrant, Selective M Receptor Antagonist with Robust Efficacy in Murine MOG-EAE” (ACS Med Chem Lett, 2021).

Experiments:
[1] = biological target: T1, Muscarinic acetylcholine receptor M1 (Homo sapiens, UniProt P11229); experiment: Antagonist activity at human recombinant muscarinic receptor M1 expressed in CHO-K1 cells assessed as EC80 acetylcholine-induced calcium flux incubated for 30 mins; type: functional, cell-based
T1 sequence (P11229 whole entry): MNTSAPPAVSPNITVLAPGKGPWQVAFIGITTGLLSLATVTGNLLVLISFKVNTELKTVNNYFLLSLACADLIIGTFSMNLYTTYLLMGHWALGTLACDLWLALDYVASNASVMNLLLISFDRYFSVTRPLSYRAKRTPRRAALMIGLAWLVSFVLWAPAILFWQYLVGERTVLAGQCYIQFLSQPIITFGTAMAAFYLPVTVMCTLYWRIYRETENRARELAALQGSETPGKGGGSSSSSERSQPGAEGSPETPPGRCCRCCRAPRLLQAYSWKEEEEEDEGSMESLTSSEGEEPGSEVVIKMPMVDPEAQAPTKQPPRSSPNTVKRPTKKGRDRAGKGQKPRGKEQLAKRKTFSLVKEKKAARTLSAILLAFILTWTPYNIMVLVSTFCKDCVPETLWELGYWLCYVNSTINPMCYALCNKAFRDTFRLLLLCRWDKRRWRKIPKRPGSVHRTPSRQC

[2] = Metabolic stability in rat liver microsomes assessed as parent compound remaining at 1 uM measured at 15 mins by LC-MS/MS analysis; type: ADME, Microsome; conditions: read-out: Stabilty

CC1(C)CN(c2ccc(C#N)cn2)CCN1C(=O)CCS(=O)(=O)c1cccc2ncsc12 showed an IC50 ([1]; read-out: IC50) of 4100 nM.
With Cc1cc(F)cnc1N1CCN(C(=O)CCCc2cccc3ncoc23)[C@@H](C)C1 the remaining at 0.25 h, 1 µM [2] was 0%.
Compound Cc1cncc(Cl)c1N1CCN(C(=O)CCS(=O)(=O)c2cccc3ncsc23)CC1 has an IC50 ([1]; read-out: IC50) of 8500 nM.
Cc1cc(F)cnc1N1CCN(C(=O)CCCc2cccc3ncc(CO)cc23)[C@@H](C)C1 showed an IC50 ([1]; read-out: IC50) of over 170 nM, an IC50 ([1]; read-out: pIC50 (converted)) of 158 nM and a remaining at 0.25 h, 1 µM [2] of 1%.
Cc1cc(F)cnc1N1CCN(C(=O)COCc2cccc3ncsc23)[C@@H](C)C1 gave an IC50 ([1]; read-out: IC50) of 3600 nM.
Work on COc1cc(N2CCN(C(=O)CCCc3cccc4ncccc34)CC2)ccn1 yielded an IC50 ([1]; read-out: IC50) of 300 nM.
For Cc1cc(F)cnc1N1CCN(C(=O)CCCc2cccc3ncccc23)CC1, the IC50 ([1]; read-out: IC50) was 69 nM.
CC1CN(c2ccc(C#N)cn2)CCN1C(=O)CCS(=O)(=O)c1cccc2ncsc12 (racemic) showed an IC50 ([1]; read-out: IC50) of 22 nM.
Compound O=C(CCCc1cccc2ncccc12)N1CCN(c2ccncc2)CC1 has an IC50 ([1]; read-out: IC50) of 24 nM.
O=C(CCS(=O)(=O)c1cccc2ncsc12)N1CCN(c2ccnc(C(F)(F)F)c2)CC1 showed an IC50 ([1]; read-out: IC50) of 4800 nM.
In the case of O=C(CCS(=O)(=O)c1cccc2ncsc12)N1CCN(c2ccc(Cl)cn2)CC1, the IC50 ([1]; read-out: IC50) is reported as 160 nM and the remaining at 0.25 h, 1 µM [2] is reported as 31%.
With Cc1cc(F)cnc1N1CCN(C(=O)CNCc2cccc3ncsc23)[C@@H](C)C1 the IC50 ([1]; read-out: IC50) was 3000 nM.
In the case of Cc1cc(F)cnc1N1CCN(C(=O)CCCc2cccc3ncsc23)[C@@H](C)C1, the IC50 ([1]; read-out: IC50) is reported as 24 nM and the remaining at 0.25 h, 1 µM [2] is reported as 5.3%.
With N#Cc1ccc(C2CCN(C(=O)CCS(=O)(=O)c3cccc4ncsc34)CC2)nc1 the IC50 ([1]; read-out: IC50) was 19 nM.
In the case of N#Cc1ccc(N2CC3CCC2CN3C(=O)CCS(=O)(=O)c2cccc3ncsc23)nc1 (racemic), the IC50 ([1]; read-out: IC50) is reported as 25 nM.
N#Cc1cnccc1N1CCN(C(=O)CCCc2cccc3ncccc23)CC1 gave an IC50 ([1]; read-out: IC50) of 1100 nM.
Compound Cc1cc(F)cnc1N1CCN(C(=O)CCS(=O)(=O)c2cccc3ncsc23)[C@@H](C)C1 has an IC50 ([1]; read-out: IC50) of 71 nM and a remaining at 0.25 h, 1 µM [2] of 9.6%.
Work on O=C(CCS(=O)(=O)c1cccc2ncsc12)N1CCN(c2ccc(C(F)(F)F)cn2)CC1 yielded an IC50 ([1]; read-out: IC50) of 32 nM and a remaining at 0.25 h, 1 µM [2] of 41%.
O=C(CCCc1cccc2ncccc12)N1CC2(C1)CN(c1ccc(F)cn1)C2 gave an IC50 ([1]; read-out: IC50) of over 20000 nM and an IC50 ([1]; read-out: pIC50 (converted)) of over 10000 nM.
With O=C(CCNS(=O)(=O)c1cccc2ncccc12)N1CCN(c2ccncc2)CC1 the IC50 ([1]; read-out: IC50) was 130 nM.
Compound Cc1ccncc1N1CCN(C(=O)CCS(=O)(=O)c2cccc3ncsc23)CC1 has an IC50 ([1]; read-out: IC50) of 260 nM.
